Like-named read-outs stand apart in the source and are kept apart here. Marks after values point to notes of the source that are not given here.
Assays:
A549 tumor xenografts = tested on: A549 tumor xenografts
Excerpt: Utilizing this model, one can measure the ability of test compounds to inhibit the growth of human tumor xenografts growing subcutaneously (s.c.) in athymic nude mice. The histologic tumor types employed were MDA-MB-435 breast, A549 non-small cell lung, HCT-116 colon and PC-3 prostate carcinomas.
A549 non-small cell lung carcinoma xenograft model: Briefly, 10 million cells were implanted s.c. into the right flank of athymic (nu/nu) mice, and were allowed to grow until a mass of approximately 120 mm^3 was established. The test compounds are administered three times per week intravenously (i.v.) for three weeks in 5% dextrose, 10%DMSO in water. The test compounds are administered in dose-response fashion in order to evaluate and document the full potential range of activity (efficacy and toxicity) for a given compound. Positive controls are carried out with mitomycin C administered 3 times per week intraperitioneally (i.p.).
Toxicity was monitored by recording average group body weights twice weekly, and by daily observation of general health. Efficacy was monitored by taking measurements of tumor length, width, and depth weekly using digital calipers coupled to automated data collectors. Mean tumor volume (MTV) at initiation of therapy was subtracted from final MTV in order to express the actual tumor growth during treatment (ΔMTV). Anti-tumor activity was expressed as %T/C (ΔMTV of treated group÷ΔMTV of control group×100). Regressions were calculated using the formula: (T/T0−1)×100%, where T is the tumor volume for the treatment group at the end of the experiment, and T0 is the tumor volume at the beginning of the experiment. Statistical significance was evaluated using a one-tailed Student's t-test (p<0.05).

[1] = tested on: MDA-MB-435 tumor xenografts; assay: MDA-MB-435 breast carcinoma xenograft model; type: in vivo, athymic (nu/nu) mice
Procedure: Positive controls are carried out with doxorubicin administered 3 times per week i.v.
The following results were obtained for compounds of Ex.1-Ex.12 tested against MDA-MB-435 tumor xenografts 3×/week for 3 weeks: […]

[2] = tested on: MDA-MB-435 breast carcinoma; assay: Anchorage Dependent Growth Monolayer Assay (ADGMA), MDA-MB-435; type: cell-based, human; conditions: 3-day exposure, MTS readout, read-out: IC50 (average±S.D.) MDA-MB-435
Procedure: As indicated above, all of the compounds of formula I, and their corresponding pharmaceutically acceptable acid addition salts, are anti-tumor agents and are, therefore, useful in inhibiting the growth of various lymphomas, sarcomas, carcinomas, myelomas, and leukemia cell lines.
The ADGMA compares the number of viable cells following a 3-day exposure to a test compound relative to a number of cells present at the time the test compound was added. […] The absorbance at 490 nm (A490) of the formazan derivative is proportional to the number of viable cells. The IC50 for a test compound is the concentration of compound required to reduce the final cell number to 50% of the final control cell number. If cell proliferation is inhibited, the assay further defines compounds as cytostatic (cell number after 3-day compound incubation >cell number at time of compound addition) or cytotoxic (cell number after 3-day compound incubation <cell number at time of compound addition).
The MDA-MB-435 breast carcinoma line was obtained from the American Type Culture Collection (ATCC) and used between passages 4-20 following thawing. MDA-MB-435 breast carcinoma was maintained and plated in DME/F12 medium containing 10% fetal bovine serum, 15 mM HEPES (pH=7.4), 100 units/mL penicillin, and 100 μg/mL streptomycin.
Cell lines are trypsinized and counted using a Coulter counter to determine plating densities. Cells are then plated in their respective maintenance media (100 μL/well) in 96 well plates at the following densities: MDA-MB-435, 3,000 cells/well; A549 and HCT-116, 700 cells/well; are PC-3, 2500 cells/well. The number of cells plates as determined in preliminary experiments, results in cell densities of 75-90% of confluency by 4 days after plating. Initial cell densities, assayed one day after plating, are roughly 0.15-0.20 absorbance units greater than the media blank. Ninety-six well plates are seeded on day 0 and the test compounds are added on day 1. A control plate is created for each cell line that receives media only in row A and cells in row B. One day following plating, test compounds are added (in a final volume of 100 μL) to the test plates. Control plates receive 10 μL MTS mixture (prepared fresh on day of addition to cell plates at a ratio of 10 μL of a 0.92 mg/mL solution of PMS to a 190 μL of a 2 mg/mL solution of MTS) and 100 μL media. A490 of control plates is read 4 h after MTS addition to determine initial cell density values for each cell line. Three days after addition of test compound, 10 μL/well of MTS mixture is added to the test plates and A490 is read 4 h later. A490 values for wells containing cells are corrected for media absorbance, then normalized to initial density readings to determine percent net growth. IC50 values are determined from graphs of percent net growth as a function of compound concentration. Percent net growth is calculated as (Cell+Drug A490−Initial A490/Cell+Drug Vehicle A490−Initial A490).

PC-3 tumor xenografts = assay: PC-3 prostate carcinoma xenograft model; type: in vivo, athymic (nu/nu) mice; conditions: 15 mg/kg i.v. daily for the first five days (positive control)
HCT-116 tumor xenografts = assay: HCT-116 colon carcinoma xenograft model; type: in vivo, athymic (nu/nu) mice; conditions: 75 mg/kg i.v. 1 time per week (positive control)
Procedure: Positive controls are carried out with 5-fluorouracil administered 1 time per week i.v.

[3] = 2 mg/kg i.p. 3 times per week (positive control)
[4] = 10 μmol/kg i.v. 3×/week for 3 weeks
[5] = 33 μmol/kg i.v. 3×/week for 3 weeks

SMILES	Dead/Total [1, 4]	Dead/Total [1, 5]	% T/C [1, 4]	% T/C [1, 5]	also measured
CO[C@@]12[C@H](COC(N)=O)C3=C(C(=O)C(C)=C(N)C3=O)N1C[C@@H]1N[C@@H]12 [Mitomycin C, reference compound]					% T/C (A549 tumor xenografts; [3]): 20* %; Δ MTV (A549 tumor xenografts; [3]): 15 mm^3; Dead/Total (A549 tumor xenografts; mouse, in vivo): 0/8
CO[C@@H](C(=O)N[C@H]1CC[C@@H](OC(=O)/C=C/c2ccccc2)CNC1=O)[C@H](O)[C@@H](O)[C@H](O)/C=C/C(C)(C)C [Ex. 11, (2R, 3R, 4S, 5R, 6E)-3,4,5-Trihydroxy-2-methoxy-8,8-dimethyl-N-[(3S, 6R)-hexahydro-2-oxo-6-(1-oxo-3-phenyl-2-propenoxy)-2H-azepin-3-yl]non-6-enamide]	0/8	0/8			Δ MTV [1, 4]: 135 mm^3; Δ MTV [1, 5]: 76 mm^3
CCCCCCCCCCc1ccc(C(=O)O[C@@H]2CC[C@H](NC(=O)[C@H](OC)[C@H](O)[C@@H](O)[C@H](O)/C=C/C(C)(C)C)C(=O)NC2)cc1 [Ex. 12, (2R, 3R, 4S, 5R, 6E)-3,4,5-Trihydroxy-2-methoxy-8,8-dimethyl-N-[(3S, 6R)-hexahydro-2-oxo-6-([4-n-decylphenyl]carbonyl)oxy-2H-azepin-3-yl]non-6-enamide]	0/8	0/8	52%	7* %	IC50 ([2]; Homo sapiens, MDA-MB-435, 72 h): 27 ± 37 nM
CO[C@@H](C(=O)N[C@H]1CC[C@@H](OC(=O)Cc2c[nH]c3ccccc23)CNC1=O)[C@H](O)[C@@H](O)[C@H](O)/C=C/C(C)(C)C [Ex. 14, (2R, 3R, 4S, 5R, 6E)-3,4,5-Trihydroxy-2-methoxy-8,8-dimethyl-N-[(3S, 6R)-hexahydro-2-oxo-6-(1-oxo-3-[3-indolyl]ethoxy)-2H-azepin-3-yl]non-6-enamide]					IC50 [2]: 1240 ± 196 nM
CC(=O)O[C@H]1C(=O)[C@@]2(C)[C@H]([C@H](OC(=O)c3ccccc3)[C@]3(O)C[C@H](OC(=O)[C@H](O)[C@@H](NC(=O)c4ccccc4)c4ccccc4)C(C)=C1C3(C)C)[C@]1(OC(C)=O)CO[C@@H]1C[C@@H]2O [Paclitaxel, reference compound]					% regression (PC-3 tumor xenografts): 100 regression* %; Dead/Total (PC-3 tumor xenografts): 3/8; Δ MTV (PC-3 tumor xenografts): −103 mm^3
CCCCCCCCCCOc1ccc(C(=O)O[C@@H]2CC[C@H](NC(=O)[C@H](OC)[C@H](O)[C@@H](O)[C@H](O)/C=C/C(C)(C)C)C(=O)NC2)cc1 [Ex. 10, (2R, 3R, 4S, 5R, 6E)-3,4,5-Trihydroxy-2-methoxy-8,8-dimethyl-N-[(3S, 6R)-hexahydro-2-oxo-6-([4-n-decyloxyphenyl]carbonyl)oxy-2H-azepin-3-yl]non-6-enamide]	0/8	0/8	64* %	2* %	IC50 ([2]; Homo sapiens, MDA-MB-435, 72 h): 6 ± 4 nM; Δ MTV [1, 5]: 4 mm^3
CO[C@@H](C(=O)N[C@H]1CC[C@@H](OC(=O)Cc2ccccc2)CNC1=O)[C@H](O)[C@@H](O)[C@H](O)/C=C/C(C)(C)C [Ex. 7, (2R, 3R, 4S, 5R, 6E)-3,4,5-Trihydroxy-2-methoxy-8,8-dimethyl-N-[(3S, 6R)-hexahydro-2-oxo-6-(1-oxo-2-phenylethoxy)-2H-azepin-3-yl]non-6-enamide.]	0/8	0/8	72%	43* %	IC50 [2]: 262 ± 70 nM
CO[C@@H](C(=O)N[C@H]1CC[C@@H](OC(=O)C2CCCCCC2)CNC1=O)[C@H](O)[C@@H](O)[C@H](O)/C=C/C(C)(C)C [Ex. 3, (2R, 3R, 4S, 5R, 6E)-3,4,5-Trihydroxy-2-methoxy-8,8-dimethyl-N-[(3S, 6R)-hexahydro-2-oxo-6(cylohpetylcarbonyl)oxy-2H-azepin-3-yl]non-6-enamide]	0/8	0/8	39* %	28* %	IC50 [2]: 32 ± 14 nM
O=c1[nH]cc(F)c(=O)[nH]1 [5-fluorouracil, reference compound]					% T/C (HCT-116 tumor xenografts): 16* %; Dead/Total (HCT-116 tumor xenografts): 0/8; Δ MTV (HCT-116 tumor xenografts): 65 mm^3
COc1ccc(CC(=O)O[C@@H]2CC[C@H](NC(=O)[C@H](OC)[C@H](O)[C@@H](O)[C@H](O)/C=C/C(C)(C)C)C(=O)NC2)cc1 [Ex. 9, (2R, 3R, 4S, 5R, 6E)-3,4,5-Trihydroxy-2-methoxy-8,8-dimethyl-N-[(3S, 6R)-hexahydro-2-oxo-6-(1-oxo-2-[4-methoxyphenyl]ethoxy)-2H-azepin-3-yl]non-6-enamide]	0/8	0/8	76%	48* %	
CO[C@@H](C(=O)N[C@H]1CC[C@@H](OC(=O)CC2CCCCC2)CNC1=O)[C@H](O)[C@@H](O)[C@H](O)/C=C/C(C)(C)C [Ex. 6, (2R, 3R, 4S, 5R, 6E)-3,4,5-Trihydroxy-2-methoxy-8,8-dimethyl-N-[(3S, 6R)-hexahydro-2-oxo-6-(cyclohexylmethylcarbonyl)oxy-2H-azepin-3-yl]non-6-enamide]	0/8	0/8	47* %	34* %	
CO[C@@H](C(=O)N[C@H]1CC[C@@H](OC(=O)Cc2ccc(Cl)c(Cl)c2)CNC1=O)[C@H](O)[C@@H](O)[C@H](O)/C=C/C(C)(C)C [Ex. 8, (2R, 3R, 4S, 5R, 6E)-3,4,5-Trihydroxy-2-methoxy-8,8-dimethyl-N-[(3S, 6R)-hexahydro-2-oxo-6-(1-oxo-2-[3,4-dichlorophenyl]ethoxy)-2H-azepin-3-yl]non-6-enamide]	0/8	0/8	62%	67%	
